Measured values: paper PMC9061180 (RSC Advances, 2019)
Where two headings read alike, the source gives them in different places.

Experiments:
Format in all cases: cell-based
[1] = test system: MIA (pancreatic carcinoma); experiment: cells; conditions: read-out: GI50 MIA
[2] = test system: SMA (spontaneous murine astrocytoma); experiment: cells; conditions: read-out: GI50 SMA
H460 (lung carcinoma) = experiment: cells; conditions: read-out: GI50 H460
MCF-7 (breast carcinoma) = experiment: cells; conditions: read-out: GI50 MCF-7
SJ-G2 (glioblastoma) = experiment: cells; conditions: read-out: GI50 SJ-G2
HT29 (colon carcinoma) = experiment: cells; conditions: read-out: GI50 HT29
[3] = test system: panel of eleven cancer cell lines and one normal cell line; experiment: MTT cytotoxicity, panel of eleven cancer cell lines and one normal cell line; conditions: for activity in initial screen: 25 μM drug concentration; for levels of toxicity: against HT29, U87, A2780, MIA and SMA cell lines; for GI50: read-out: average GI50
[4] = test system: A2780 (ovarian carcinoma); experiment: cells; conditions: read-out: GI50 A2780
MCF10A (normal breast) = experiment: cells; conditions: read-out: GI50 MCF10A
BE2-C (neuroblastoma) = experiment: cells; conditions: read-out: GI50 BE2-C
[5] = test system: Du145 (prostate carcinoma); experiment: cells; conditions: read-out: GI50 Du145
A431 (skin carcinoma) = experiment: cells; conditions: read-out: GI50 A431
U87 (glioblastoma) = experiment: cells; conditions: read-out: GI50 U87
[6] = Table 5, normal breast cell line, 72 h exposure, MTT

| Compound | GI50 ([1]; 72 h) [nM] | GI50 ([2]; Mus musculus, 72 h) [nM] | GI50 (H460 (lung carcinoma); Homo sapiens, NCI-H460, 72 h) [nM] | GI50 (MCF-7 (breast carcinoma); Homo sapiens, MCF7, 72 h) [nM] | GI50 (SJ-G2 (glioblastoma); SJ-G2, 72 h) [nM] | GI50 (HT29 (colon carcinoma); Homo sapiens, HT-29, 72 h) [nM] | activity in initial screen [3] | levels of toxicity [3] | GI50 [3] [nM] | GI50 ([4]; Homo sapiens, A2780, 72 h) [nM] | GI50 (MCF10A (normal breast); Homo sapiens, MCF-10A, 72 h) [nM] | GI50 (BE2-C (neuroblastoma); Homo sapiens, BE(2)-C, 72 h) [nM] | GI50 ([5]; Homo sapiens, DU-145, 72 h) [nM] | GI50 (A431 (skin carcinoma); Homo sapiens, A-431, 72 h) [nM] | GI50 (U87 (glioblastoma); 72 h) [nM] | also measured |
| --- | --- | --- | --- | --- | --- | --- | --- | --- | --- | --- | --- | --- | --- | --- | --- | --- |
| C#CC(=O)N(c1ccccc1)C(C(=O)NC1CCCCC1)c1ccccc1 (racemic) [Compound 12, (RS)-N-(2-(Cyclohexylamino)-2-oxo-1-phenylethyl)-N-phenylpropiolamide] | 250 ± 20 | 250 | 3600 ± 600 | 1600 ± 290 | 3000 ± 100 | 270 ± 10 | sufficiently promising activity | sub-micro molar | 1160 | 230 ± 20 | 2900 ± 100 | 500 ± 200 | 180 ± 10 | 1000 ± 200 | 190 ± 10 | – |
| O=C(NC1CCCCC1)C(c1ccccc1)N(C(=O)CC(F)(F)F)c1ccccc1 (racemic) [Compound 16g, (RS)-N-(2-(Cyclohexylamino)-2-oxo-1-phenylethyl)-3,3,3-trifluoro-N-phenylpropanamide] | 5900 ± 100 | 10000 ± 300 | 6000 ± 500 | 8000 ± 2000 | 11000 ± 1000 | 5900 ± 200 | sufficiently promising activity | – | 7200 | 6500 ± 200 | 5100 ± 500 | 6900 ± 600 | 4800 ± 400 | 4300 ± 300 | 12000 ± 1000 | – |
| C#CC(=O)N(c1ccccc1)C(C(=O)NCc1ccccc1)c1ccccc1 (racemic) [Compound 17a, (RS)-N-(2-(Benzylamino)-2-oxo-1-phenylethyl)-N-phenylpropiolamide] | 150 ± 9 | 160 | 2000 ± 500 | 1700 ± 200 | 2500 ± 100 | 170 ± 3 | sufficiently promising activity | sub-micro molar | 970 | 100 ± 34 | 1400 ± 400 | 1400 ± 300 | 1000 ± 10 | 970 ± 200 | 130 ± 17 | – |
| CC(=O)N(c1ccccc1)C(C(=O)NCc1ccccc1)c1ccccc1 (racemic) [Compound 17e, (RS)-N-Benzyl-2-phenyl-2-(N-phenylacetamido)acetamide] | 8500 ± 900 | > 50000 | 21000 | > 50000 | 15000 ± 4000 | > 50000 | sufficiently promising activity | – | – | 16000 | 15000 ± 1000 | 25000 ± 9000 | > 50000 | 13000 ± 1000 | > 50000 | – |
| C#CC(=O)N(c1ccccc1)C(C(=O)NCC(=O)OCC)c1ccccc1 (racemic) [Compound 18a, (RS)-Ethyl (2-phenyl-2-(N-phenylpropiolamido)acetyl)glycinate] | 500 ± 100 | 480 ± 60 | 3000 ± 400 | 2700 ± 130 | 3000 ± 200 | 470 ± 90 | sufficiently promising activity | sub-micro molar | 1800 | 330 ± 110 | 6600 ± 1000 | 1800 ± 400 | 320 ± 40 | 2100 ± 300 | 270 ± 30 | – |
| C#CC(=O)N(c1ccc(OC)cc1)C(C(=O)NC1CCCCC1)c1ccccc1 (racemic) [Compound 19, (RS)-N-(2-(Cyclohexylamino)-2-oxo-1-phenylethyl)-N-(4-methoxyphenyl)propiolamide] | 200 ± 20 | – | 2200 ± 200 | 1200 ± 33 | 760 ± 570 | 200 ± 20 | – | – | – | 220 ± 17 | 3300 ± 520 | 200 ± 6.7 | 200 ± 69 | 590 ± 260 | 220 | – |
| C#CC(=O)N(c1ccccc1)C(C(=O)NC1CCCCC1)c1cccc(OC)c1OC (racemic) [Compound 20, (RS)-N-(2-(Cyclohexylamino)-1-(2,3-dimethoxyphenyl)-2-oxoethyl)-N-phenylpropiolamide] | 460 ± 100 | – | 2300 ± 300 | 1800 ± 67 | 1800 ± 88 | 470 ± 120 | – | – | – | 490 ± 95 | 7600 ± 1800 | 460 ± 38 | 660 ± 240 | 1200 ± 410 | 710 ± 64 | – |
| C#CC(=O)N(c1ccccc1)C(C(=O)NC1CCCCC1)c1ccc(OC)c(OC)c1 (racemic) [Compound 21, (RS)-N-(2-(Cyclohexylamino)-1-(3,4-dimethoxyphenyl)-2-oxoethyl)-N-phenylpropiolamide] | 440 ± 140 | – | 2800 ± 1100 | 1500 ± 120 | 1600 ± 180 | 530 ± 41 | – | – | – | 540 ± 120 | 5100 ± 400 | 270 ± 29 | 610 ± 250 | 1000 ± 290 | 730 ± 130 | – |
| (RS)-N-(2-(Cyclohexylamino)-2-oxo-1-phenylethyl)-N-phenylbut-2-enamide [Compound 16d] | – | – | – | – | – | – | sufficiently promising activity | – | – | – | – | – | – | – | – | GI50 ([1]; Table 5, 72 h exposure, MTT): 4500 ± 300 nM; GI50 ([2]; Table 5, 72 h exposure, MTT): 14000 ± 2000 nM; GI50 (H460 (lung carcinoma); Table 5, 72 h exposure, MTT): 13000 ± 300 nM; GI50 (MCF-7 (breast carcinoma); Table 5, 72 h exposure, MTT): 4600 ± 1300 nM; GI50 (SJ-G2 (glioblastoma); Table 5, 72 h exposure, MTT): 13000 ± 1000 nM; GI50 (HT29 (colon carcinoma); Table 5, 72 h exposure, MTT): 15000 ± 1000 nM; GI50 ([3]; average over the cell lines of Table 5): 9400 nM; GI50 ([4]; Table 5, 72 h exposure, MTT): 12000 nM; GI50 (MCF10A (normal breast); [6]): 7500 ± 1800 nM; GI50 (BE2-C (neuroblastoma); Table 5, 72 h exposure, MTT): 2600 ± 300 nM; GI50 ([5]; Table 5, 72 h exposure, MTT): 8600 ± 2300 nM; GI50 (A431 (skin carcinoma); Table 5, 72 h exposure, MTT): 2200 ± 100 nM; GI50 (U87 (glioblastoma); Table 5, 72 h exposure, MTT): 16000 nM |
| N-(2-cyclohexylamino)-1-(4-methoxyphenyl)-2-oxoethyl-N-(3,5-dimethoxyphenyl)propiolamide [Compound 1, reference compound] | – | – | – | – | – | – | – | – | – | – | – | – | – | – | – | GI50 ([1]; Table 5, 72 h exposure, MTT): 60 ± 30 nM; GI50 (H460 (lung carcinoma); Table 5, 72 h exposure, MTT): 1400 ± 600 nM; GI50 (MCF-7 (breast carcinoma); Table 5, 72 h exposure, MTT): 1700 ± 170 nM; GI50 (SJ-G2 (glioblastoma); Table 5, 72 h exposure, MTT): 1700 ± 260 nM; GI50 (HT29 (colon carcinoma); Table 5, 72 h exposure, MTT): 70 ± 10 nM; GI50 ([3]; across the cancer cell lines evaluated): ≤ 1000 nM; GI50 ([4]; Table 5, 72 h exposure, MTT): 580 ± 510 nM; GI50 (MCF10A (normal breast); [6]): 290 ± 30 nM; GI50 (BE2-C (neuroblastoma); Table 5, 72 h exposure, MTT): 30 ± 10 nM; GI50 ([5]; Table 5, 72 h exposure, MTT): 110 ± 50 nM; GI50 (A431 (skin carcinoma); Table 5, 72 h exposure, MTT): 460 ± 150 nM; GI50 (U87 (glioblastoma); Table 5, 72 h exposure, MTT): 60 ± 20 nM |
